Results from ChEMBL document CHEMBL1201861, “Genomics of Drug Sensitity in Cancer screening data, Wellcome Trust Sanger Institute”.

Assays:
[1] = system: CPC-N; assay: cells; format: functional, cell-based; conditions: Homo sapiens;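 note: growth inhibition of CPC-N cells, with a cell viability assay as the readout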
Description: SANGER: Inhibition of human CPC-N cell growth in a cell viability assay.

[2] = system: DOK; assay: cells; format: functional, cell-based; conditions: Homo sapiens;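 note: cell viability assay read-out, values reflect inhibition of cell growth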
Description: SANGER: Inhibition of human DOK cell growth in a cell viability assay.

[3] = system: DU-145; assay: cells; format: functional, cell-based; conditions: Homo sapiens
Description: SANGER: Inhibition of human DU-145 cell growth in a cell viability assay.

[4] = system: EVSA-T; assay: cells; format: functional, cell-based; conditions: Homo sapiens;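 note: growth inhibition of EVSA-T cells, read out with a cell viability assay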
Description: SANGER: Inhibition of human EVSA-T cell growth in a cell viability assay.

[5] = system: G-401; assay: cells; format: functional, cell-based; conditions: Homo sapiens
Description: SANGER: Inhibition of human G-401 cell growth in a cell viability assay.

[6] = system: GMS-10; assay: cells; format: functional, cell-based; conditions: Homo sapiens;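 note: growth inhibition of GMS-10 cells, read out as cell viability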
Description: SANGER: Inhibition of human GMS-10 cell growth in a cell viability assay.

[7] = system: HCC1419; assay: cells; format: functional, cell-based; conditions: Homo sapiens;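 note: growth inhibition of human HCC1419 cells, read out as cell viability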
Description: SANGER: Inhibition of human HCC1419 cell growth in a cell viability assay.

[8] = system: HCC2157; assay: cells; format: functional, cell-based; conditions: Homo sapiens;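 note: growth inhibition of the cancer cell line, read out as cell viability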
Description: SANGER: Inhibition of human HCC2157 cell growth in a cell viability assay.

[9] = system: HN; assay: cells; format: functional, cell-based; conditions: Homo sapiens
Description: SANGER: Inhibition of human HN cell growth in a cell viability assay.

[10] = system: HOP-92; assay: cells; format: functional, cell-based; conditions: Homo sapiens;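 note: cell viability readout, with IC50 reflecting inhibition of HOP-92 cell growth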
Description: SANGER: Inhibition of human HOP-92 cell growth in a cell viability assay.

[11] = system: HT-29; assay: cells; format: functional, cell-based; conditions: Homo sapiens;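 note: growth inhibition of human HT-29 cells, read out by a cell viability assay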
Description: SANGER: Inhibition of human HT-29 cell growth in a cell viability assay.

[12] = system: HT55; assay: cells; format: functional, cell-based; conditions: Homo sapiens;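 note: cell viability readout measuring growth inhibition of human HT55 cells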
Description: SANGER: Inhibition of human HT55 cell growth in a cell viability assay.

[13] = system: HTC-C3; assay: cells; format: functional, cell-based; conditions: Homo sapiens;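 note: inhibition of cell growth, read out with a cell viability assay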
Description: SANGER: Inhibition of human HTC-C3 cell growth in a cell viability assay.

[14] = system: HuCCT-1; assay: cells; format: functional, cell-based, HuCCT1; conditions: Homo sapiens;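 note: growth inhibition of HuCCT-1 cells, read out by a cell viability assay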
Description: SANGER: Inhibition of human HuCCT1 cell growth in a cell viability assay.

[15] = system: IGR-1; assay: cells; format: functional, cell-based; conditions: Homo sapiens;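 note: growth inhibition of human IGR-1 cells, read out with a cell viability assay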
Description: SANGER: Inhibition of human IGR-1 cell growth in a cell viability assay.

[16] = system: J82; assay: cells; format: functional, cell-based; conditions: Homo sapiens;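 note: growth inhibition of J82 cells, read out with a cell viability assay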
Description: SANGER: Inhibition of human J82 cell growth in a cell viability assay.

[17] = system: KOSC-2; assay: cells; format: functional, cell-based; conditions: Homo sapiens;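 note: growth inhibition of KOSC-2 cells, read out by a cell viability assay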
Description: SANGER: Inhibition of human KOSC-2 cell growth in a cell viability assay.

[18] = system: MDA-MB-134-VI; assay: cells; format: functional, cell-based; conditions: Homo sapiens
Description: SANGER: Inhibition of human MDA-MB-134-VI cell growth in a cell viability assay.

[19] = system: MDA-MB-415; assay: cells; format: functional, cell-based; conditions: Homo sapiens
[20] = system: MDA-MB-468; assay: cells; format: functional, cell-based; conditions: Homo sapiens
Description: SANGER: Inhibition of human MDA-MB-468 cell growth in a cell viability assay.

[21] = system: ME-180; assay: cells; format: functional, cell-based; conditions: Homo sapiens;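 note: cell viability assay measuring growth inhibition of ME-180 cells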
Description: SANGER: Inhibition of human ME-180 cell growth in a cell viability assay.

[22] = system: MEL-JUSO; assay: cells; format: functional, cell-based; conditions: Homo sapiens;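 note: growth inhibition of human MEL-JUSO cells, read out with a cell viability assay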
Description: SANGER: Inhibition of human MEL-JUSO cell growth in a cell viability assay.

[23] = system: MIA PaCa-2; assay: cells; format: functional, cell-based; conditions: Homo sapiens;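 note: growth inhibition of MIA PaCa-2 cells, read out with a cell viability assay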
Description: SANGER: Inhibition of human MIA-PaCa-2 cell growth in a cell viability assay.

[24] = system: MRK-nu-1; assay: cells; format: functional, cell-based; conditions: Homo sapiens;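 note: cell viability assay measuring growth suppression of human MRK-nu-1 cells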
Description: SANGER: Inhibition of human MRK-nu-1 cell growth in a cell viability assay.

[25] = system: NCI-H1417; assay: cells; format: functional, cell-based; conditions: Homo sapiens;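 note: human NCI-H1417 cells, growth inhibition determined with a cell viability readout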
Description: SANGER: Inhibition of human NCI-H1417 cell growth in a cell viability assay.

[26] = system: NCI-H1522; assay: cells; format: functional, cell-based; conditions: Homo sapiens;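 note: growth inhibition of NCI-H1522 cells, read out with a cell viability assay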
Description: SANGER: Inhibition of human NCI-H1522 cell growth in a cell viability assay.

[27] = system: NCI-H1618; assay: cells; format: functional, cell-based; conditions: Homo sapiens;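 note: growth inhibition of human NCI-H1618 cells, measured by a cell viability assay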
Description: SANGER: Inhibition of human NCI-H1618 cell growth in a cell viability assay.

[28] = system: NCI-H1734; assay: cells; format: functional, cell-based; conditions: Homo sapiens;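 note: growth inhibition of human NCI-H1734 cells, read out with a cell viability assay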
Description: SANGER: Inhibition of human NCI-H1734 cell growth in a cell viability assay.

[29] = system: NCI-H1755; assay: cells; format: functional, cell-based; conditions: Homo sapiens;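 note: cell viability readout used to measure growth inhibition of NCI-H1755 cells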
Description: SANGER: Inhibition of human NCI-H1755 cell growth in a cell viability assay.

[30] = system: NCI-H1792; assay: cells; format: functional, cell-based; conditions: Homo sapiens;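 note: growth inhibition of human NCI-H1792 cells, read out as cell viability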
Description: SANGER: Inhibition of human NCI-H1792 cell growth in a cell viability assay.

[31] = system: NCI-H187; assay: cells; format: functional, cell-based; conditions: Homo sapiens;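 note: growth inhibition of NCI-H187 cells, read out as cell viability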
Description: SANGER: Inhibition of human NCI-H187 cell growth in a cell viability assay.

[32] = system: NCI-H1882; assay: cells; format: functional, cell-based; conditions: Homo sapiens;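 note: growth inhibition of the cell line, determined with a viability assay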
Description: SANGER: Inhibition of human NCI-H1882 cell growth in a cell viability assay.

[33] = system: NCI-H2030; assay: cells; format: functional, cell-based; conditions: Homo sapiens;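 note: growth inhibition of human NCI-H2030 cells, read out by a cell viability assay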
Description: SANGER: Inhibition of human NCI-H2030 cell growth in a cell viability assay.

[34] = system: NCI-H2141; assay: cells; format: functional, cell-based; conditions: Homo sapiens;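 note: growth inhibition of human NCI-H2141 cells, read out with a cell viability assay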
Description: SANGER: Inhibition of human NCI-H2141 cell growth in a cell viability assay.

[35] = system: NCI-H2405; assay: cells; format: functional, cell-based; conditions: Homo sapiens;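 note: growth inhibition of the human cell line, read out with a cell viability assay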
Description: SANGER: Inhibition of human NCI-H2405 cell growth in a cell viability assay.

[36] = system: NCI-H596; assay: cells; format: functional, cell-based; conditions: Homo sapiens;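 note: growth inhibition of NCI-H596 cells, read out with a cell viability assay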
Description: SANGER: Inhibition of human NCI-H596 cell growth in a cell viability assay.

[37] = system: NCI-H650; assay: cells; format: functional, cell-based; conditions: Homo sapiens;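 note: growth inhibition of NCI-H650 cells, read out by a viability assay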
Description: SANGER: Inhibition of human NCI-H650 cell growth in a cell viability assay.

[38] = system: P31-FUJ; assay: cells; format: functional, cell-based; conditions: Homo sapiens;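 note: growth inhibition of P31-FUJ cells, read out with a viability assay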
Description: SANGER: Inhibition of human P31-FUJ cell growth in a cell viability assay.

[39] = system: RD; assay: cells; format: functional, cell-based; conditions: Homo sapiens
Description: SANGER: Inhibition of human RD cell growth in a cell viability assay.

[40] = system: RT-112; assay: cells; format: functional, cell-based; conditions: Homo sapiens
Description: SANGER: Inhibition of human RT-112 cell growth in a cell viability assay.

[41] = system: SIG-M5; assay: cells; format: functional, cell-based; conditions: Homo sapiens;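 note: cell viability assay read-out, measuring how strongly growth of cultured human SIG-M5 cells is inhibited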
Description: SANGER: Inhibition of human SIG-M5 cell growth in a cell viability assay.

[42] = system: SK-HEP1; assay: cells; format: functional, cell-based, SK-HEP-1; conditions: Homo sapiens;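 note: cell viability readout used to quantify reduction in proliferation of human SK-HEP-1 cells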
Description: SANGER: Inhibition of human SK-HEP-1 cell growth in a cell viability assay.

[43] = system: SK-MEL-30; assay: cells; format: functional, cell-based; conditions: Homo sapiens;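 note: growth inhibition of SK-MEL-30 cells, determined with a cell viability assay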
Description: SANGER: Inhibition of human SK-MEL-30 cell growth in a cell viability assay.

[44] = system: SNU-387; assay: cells; format: functional, cell-based; conditions: Homo sapiens
Description: SANGER: Inhibition of human SNU-387 cell growth in a cell viability assay.

[45] = system: SNU-423; assay: cells; format: functional, cell-based; conditions: Homo sapiens
Description: SANGER: Inhibition of human SNU-423 cell growth in a cell viability assay.

[46] = system: SU-DHL-1; assay: SANGER: Inhibition of human SU-DHL-1 cell growth in a cell viability assay.; format: functional, cell-based
[47] = system: SW1088; assay: cells; format: functional, cell-based; conditions: Homo sapiens;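 note: growth inhibition of human SW1088 cells, read out by a cell viability assay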
Description: SANGER: Inhibition of human SW1088 cell growth in a cell viability assay.

[48] = system: SW1417; assay: cells; format: functional, cell-based; conditions: Homo sapiens;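 note: growth inhibition of human SW1417 cells, read out with a cell viability assay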
Description: SANGER: Inhibition of human SW1417 cell growth in a cell viability assay.

[49] = system: SW1573; assay: cells; format: functional, cell-based; conditions: Homo sapiens;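 note: growth inhibition of SW1573 cells, read out with a cell viability assay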
Description: SANGER: Inhibition of human SW1573 cell growth in a cell viability assay.

[50] = system: SW-620; assay: cells; format: functional, cell-based; conditions: Homo sapiens;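 note: growth inhibition of human SW-620 cells, measured by a cell viability assay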
Description: SANGER: Inhibition of human SW620 cell growth in a cell viability assay.

[51] = system: TALL-1; assay: cells; format: functional, cell-based; conditions: Homo sapiens;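 note: growth inhibition of cultured human TALL-1 cells, read out by a cell viability assay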
Description: SANGER: Inhibition of human TALL-1 cell growth in a cell viability assay.

[52] = system: TCC-SUP; assay: cells; format: functional, cell-based; conditions: Homo sapiens;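 note: growth inhibition of TCC-SUP cells, read out with a cell viability assay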
Description: SANGER: Inhibition of human TCCSUP cell growth in a cell viability assay.

[53] = system: A 172; assay: cells; format: functional, cell-based; conditions: Homo sapiens;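 note: growth inhibition of A172 cells, measured with a cell viability readout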
Description: SANGER: Inhibition of human A172 cell growth in a cell viability assay.

[54] = system: ARH-77; assay: cells; format: functional, cell-based; conditions: Homo sapiens;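 note: growth inhibition of ARH-77 cells, read out by a cell viability assay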
Description: SANGER: Inhibition of human ARH-77 cell growth in a cell viability assay.

[55] = system: BL-41; assay: cells; format: functional, cell-based; conditions: Homo sapiens;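 note: growth inhibition of human BL-41 cells, read out with a cell viability assay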
Description: SANGER: Inhibition of human BL-41 cell growth in a cell viability assay.

[56] = system: C-33-A; assay: cells; format: functional, cell-based; conditions: Homo sapiens;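 note: cell viability assay measuring growth inhibition of C-33-A cells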
Description: SANGER: Inhibition of human C-33-A cell growth in a cell viability assay.

[57] = system: C3A; assay: cells; format: functional, cell-based; conditions: Homo sapiens;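 note: growth inhibition of C3A human cells, quantified with a cell viability readout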
Description: SANGER: Inhibition of human C3A cell growth in a cell viability assay.

[58] = system: CAKI-1; assay: cells; format: functional, cell-based; conditions: Homo sapiens;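 note: growth inhibition of CAKI-1 cells, measured by a cell viability assay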
Description: SANGER: Inhibition of human CAKI-1 cell growth in a cell viability assay.

[59] = system: CAL-33; assay: cells; format: functional, cell-based; conditions: Homo sapiens;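 note: growth inhibition of CAL-33 cells, read out with a cell viability assay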
Description: SANGER: Inhibition of human CAL-33 cell growth in a cell viability assay.

[60] = system: CAL-54; assay: cells; format: functional, cell-based; conditions: Homo sapiens;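 note: growth inhibition of CAL-54 cells, read out by a viability measurement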
Description: SANGER: Inhibition of human CAL-54 cell growth in a cell viability assay.

[61] = system: CAL-62; assay: cells; format: functional, cell-based; conditions: Homo sapiens;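 note: growth inhibition of CAL-62 cells, read out with a cell viability assay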
Description: SANGER: Inhibition of human CAL-62 cell growth in a cell viability assay.

## C/C(O)=C(\C#N)C(=O)Nc1cc(Br)ccc1Br
[1]
  IC50: > 16000 nM
[2]
  IC50: > 16000 nM
[3]
  IC50: > 16000 nM
[4]
  IC50: > 16000 nM
[5]
  IC50: > 16000 nM
[6]
  IC50: > 16000 nM
[7]
  IC50: > 16000 nM
[8]
  IC50: > 16000 nM
[9]
  IC50: > 16000 nM
[10]
  IC50: > 16000 nM
[11]
  IC50: > 16000 nM
[12]
  IC50: > 16000 nM
[13]
  IC50: > 16000 nM
[14]
  IC50: > 16000 nM
[15]
  IC50: > 16000 nM
[16]
  IC50: > 16000 nM
[17]
  IC50: > 16000 nM
[18]
  IC50: > 16000 nM
[19]
  IC50: > 16000 nM
[20]
  IC50: > 16000 nM
[21]
  IC50: > 16000 nM
[22]
  IC50: > 16000 nM
[23]
  IC50: > 16000 nM
[24]
  IC50: > 16000 nM
[25]
  IC50: > 16000 nM
[26]
  IC50: > 16000 nM
[27]
  IC50: > 16000 nM
[28]
  IC50: > 16000 nM
[29]
  IC50: > 16000 nM
[30]
  IC50: > 16000 nM
[31]
  IC50: > 16000 nM
[32]
  IC50: > 16000 nM
[33]
  IC50: > 16000 nM
[34]
  IC50: > 16000 nM
[35]
  IC50: > 16000 nM
[36]
  IC50: > 16000 nM
[37]
  IC50: > 16000 nM
[38]
  IC50: > 16000 nM
[39]
  IC50: > 16000 nM
[40]
  IC50: > 16000 nM
[41]
  IC50: > 16000 nM
[42]
  IC50: > 16000 nM
[43]
  IC50: > 16000 nM
[44]
  IC50: > 16000 nM
[45]
  IC50: > 16000 nM
[46]
  IC50: > 16000 nM
[47]
  IC50: > 16000 nM
[48]
  IC50: > 16000 nM
[49]
  IC50: > 16000 nM
[50]
  IC50: > 16000 nM
[51]
  IC50: > 16000 nM
[52]
  IC50: > 16000 nM
[53]
  IC50: > 16000 nM
[54]
  IC50: > 16000 nM
[55]
  IC50: > 16000 nM
[56]
  IC50: > 16000 nM
[57]
  IC50: > 16000 nM
[58]
  IC50: > 16000 nM
[59]
  IC50: > 16000 nM
[60]
  IC50: > 16000 nM
[61]
  IC50: > 16000 nM

## CC(O)(CS(=O)(=O)c1ccc(F)cc1)C(=O)Nc1ccc(C#N)c(C(F)(F)F)c1 (stereo not drawn) [BICALUTAMIDE]
[1]
  IC50: > 1020 nM
[2]
  IC50: > 1020 nM
[3]
  IC50: > 1020 nM
[4]
  IC50: > 1020 nM
[5]
  IC50: > 1020 nM
[6]
  IC50: > 1020 nM
[7]
  IC50: > 1020 nM
[8]
  IC50: > 1020 nM
[9]
  IC50: > 1020 nM
[10]
  IC50: > 1020 nM
[11]
  IC50: > 1020 nM
[12]
  IC50: > 1020 nM
[13]
  IC50: > 1020 nM
[14]
  IC50: > 1020 nM
[15]
  IC50: > 1020 nM
[16]
  IC50: > 1020 nM
[17]
  IC50: > 1020 nM
[18]
  IC50: > 1020 nM
[19]
  IC50: > 1020 nM
[20]
  IC50: > 1020 nM
[21]
  IC50: > 1020 nM
[22]
  IC50: > 1020 nM
[23]
  IC50: > 1020 nM
[24]
  IC50: > 1020 nM
[25]
  IC50: > 1020 nM
[26]
  IC50: > 1020 nM
[27]
  IC50: > 1020 nM
[28]
  IC50: > 1020 nM
[29]
  IC50: > 1020 nM
[30]
  IC50: > 1020 nM
[31]
  IC50: > 1020 nM
[32]
  IC50: > 1020 nM
[33]
  IC50: > 1020 nM
[34]
  IC50: > 1020 nM
[35]
  IC50: > 1020 nM
[36]
  IC50: > 1020 nM
[37]
  IC50: > 1020 nM
[38]
  IC50: > 1020 nM
[39]
  IC50: > 1020 nM
[40]
  IC50: > 1020 nM
[41]
  IC50: > 1020 nM
[42]
  IC50: > 1020 nM
[43]
  IC50: > 1020 nM
[44]
  IC50: > 1020 nM
[45]
  IC50: > 1020 nM
[46]
  IC50: > 1020 nM
[47]
  IC50: > 1020 nM
[48]
  IC50: > 1020 nM
[49]
  IC50: > 1020 nM
[50]
  IC50: > 1020 nM
[51]
  IC50: > 1020 nM
[52]
  IC50: > 1020 nM
[53]
  IC50: > 1020 nM
[54]
  IC50: > 1020 nM
[55]
  IC50: > 1020 nM
[56]
  IC50: > 1020 nM
[57]
  IC50: > 1020 nM
[58]
  IC50: > 1020 nM
[59]
  IC50: > 1020 nM
[60]
  IC50: > 1020 nM
[61]
  IC50: > 1020 nM

## CCNC(=O)c1noc(-c2cc(C(C)C)c(O)cc2O)c1-c1ccc(CN2CCOCC2)cc1 [LUMINESPIB]
[1]
  IC50: > 256 nM
[2]
  IC50: > 256 nM
[3]
  IC50: 12.9 nM
[4]
  IC50: 92.7 nM
[5]
  IC50: 10.3 nM
[6]
  IC50: 134 nM
[7]
  IC50: 95.4 nM
[8]
  IC50: 57.3 nM
[9]
  IC50: 25.9 nM
[10]
  IC50: 77.1 nM
[11]
  IC50: 43.6 nM
[12]
  IC50: > 256 nM
[13]
  IC50: 26.1 nM
[14]
  IC50: 29.6 nM
[15]
  IC50: 20.5 nM
[16]
  IC50: 30.1 nM
[17]
  IC50: 41.1 nM
[18]
  IC50: 174 nM
[19]
  IC50: 197 nM
[20]
  IC50: 99.9 nM
[21]
  IC50: 47.8 nM
[22]
  IC50: 16.8 nM
[23]
  IC50: 15.1 nM
[24]
  IC50: 23 nM
[25]
  IC50: 48.9 nM
[26]
  IC50: 148 nM
[27]
  IC50: > 256 nM
[28]
  IC50: 32.3 nM
[29]
  IC50: 138 nM
[30]
  IC50: 45.8 nM
[31]
  IC50: > 256 nM
[32]
  IC50: > 256 nM
[33]
  IC50: 17 nM
[34]
  IC50: 238 nM
[35]
  IC50: 28.9 nM
[36]
  IC50: 174 nM
[37]
  IC50: 21.2 nM
[38]
  IC50: > 256 nM
[39]
  IC50: 26.6 nM
[40]
  IC50: 5.35 nM
[41]
  IC50: 4.89 nM
[42]
  IC50: 3.36 nM
[43]
  IC50: 43.6 nM
[44]
  IC50: 92.2 nM
[45]
  IC50: 10.5 nM
[46]
  IC50: 69.2 nM
[47]
  IC50: > 256 nM
[48]
  IC50: > 256 nM
[49]
  IC50: 58 nM
[50]
  IC50: 19.2 nM
[51]
  IC50: > 256 nM
[52]
  IC50: > 256 nM
[53]
  IC50: 39.5 nM
[54]
  IC50: 53.9 nM
[55]
  IC50: 56 nM
[56]
  IC50: 15.1 nM
[57]
  IC50: 24.8 nM
[58]
  IC50: 251 nM
[59]
  IC50: 43.8 nM
[60]
  IC50: > 256 nM
[61]
  IC50: 25.7 nM
